Assay results taken from the supplement of paper PMC11061612.

How the values were obtained:
Test in all cases: combination Emax (second highest fraction inhibited in the dose matrix, 72 h); higher = more inhibition; extreme values may be limits of the assay
COLO-679 (Melanoma) = test system: COLO-679 (Melanoma)
Summary of the method: (§1)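 After 24 hours at 37°C and 5% CO2 in 1536-well plates, cells in DMEM/F12 or RPMI plus 10% FBS received two-drug dose matrices for 72 hours. Viability came from CellTiter-Glo 2.0 luminescence and was scaled as inhibition, anchored at 0 by vehicle wells and at 1 by blank wells. Combination Emax is taken as the second-highest inhibition in the matrix, and Bliss excess as the observed combination effect less EA + EB − EA·EB, with EA and EB the single-agent effects.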

[1] = test system: OE33 (Esophageal Adenocarcinoma)
Summary of the method: as §1

[2] = test system: MDA-MB-453 (Breast Carcinoma)
Summary of the method: as §1

[3] = test system: SW872 (Other Solid Carcinomas)
Summary of the method: as §1

[4] = test system: MOLT-4 (T-Lymphoblastic Leukemia)
Summary of the method: as §1

[5] = test system: EFO-21 (Ovarian Carcinoma)
Summary of the method: as §1

[6] = test system: ML-2 (Acute Myeloid Leukemia)
Summary of the method: as §1

[7] = test system: NCI-H1993 (Lung Adenocarcinoma)
Summary of the method: as §1

[8] = test system: SNU-387 (Hepatocellular Carcinoma)
Summary of the method: as §1

[9] = test system: MOG-G-UVW (Low Grade Glioma)
Summary of the method: as §1

[10] = test system: NCI-H522 (Lung Adenocarcinoma)
Summary of the method: as §1

[11] = test system: Mo-T (Other Blood Carcinomas)
Summary of the method: as §1

[12] = test system: KMRC-1 (Kidney Carcinoma)
Summary of the method: as §1

[13] = test system: A4-Fuk (B-Lymphoblastic Leukemia)
Summary of the method: as §1

[14] = test system: HAL-01 (B-Lymphoblastic Leukemia)
Summary of the method: as §1

[15] = test system: ME-180 (Cervical Carcinoma)
Summary of the method: as §1

[16] = test system: Ca-Ski (Cervical Carcinoma)
Summary of the method: as §1

[17] = test system: KGN (Other Solid Carcinomas)
Summary of the method: as §1

[18] = test system: SKN (Other Solid Carcinomas)
Summary of the method: as §1

[19] = test system: COLO-668 (Small Cell Lung Carcinoma)
Summary of the method: as §1

Row | SMILES | combination Emax (COLO-679 (Melanoma)) | combination Emax [1] | combination Emax [2] | combination Emax [3] | combination Emax [4] | combination Emax [5] | combination Emax [6] | combination Emax [7] | combination Emax [8] | combination Emax [9] | combination Emax [10] | combination Emax [11] | combination Emax [12] | combination Emax [13] | combination Emax [14] | combination Emax [15] | combination Emax [16] | combination Emax [17] | combination Emax [18] | combination Emax [19]
1 | CN(CCO)CC[C@H](CSc1ccccc1)Nc1ccc(S(=O)(=O)NC(=O)c2ccc(N3CCC([C@@H](O)c4ccccc4-c4ccc(Cl)cc4)CC3)cc2)cc1S(=O)(=O)C(F)(F)F [AZD4320] + C1CN(CCC1(C(=O)N[C@@H](CCO)C2=CC=C(C=C2)Cl)N)C3=NC=NC4=C3C=CN4 [Capivasertib] (first compound max 1 µM, 7x7, partner max 3 µM) | 0.0975 | 0.0577 | 0.596 | 0.166 | 1 | 0.168 | 0.984 | 0.791 | 0.213 | 0.355 | 0.049 | 0.697 | 0.51 | 0.683 | 0.761 | 0.507 | 0.766 | 0.323 | 0.401 | –
2 | CN(CCO)CC[C@H](CSc1ccccc1)Nc1ccc(S(=O)(=O)NC(=O)c2ccc(N3CCC([C@@H](O)c4ccccc4-c4ccc(Cl)cc4)CC3)cc2)cc1S(=O)(=O)C(F)(F)F [AZD4320] + CC(=O)O[C@H]1C(=O)[C@@]2(C)[C@H]([C@H](OC(=O)c3ccccc3)[C@]3(O)C[C@H](OC(=O)[C@H](O)[C@@H](NC(=O)c4ccccc4)c4ccccc4)C(C)=C1C3(C)C)[C@]1(OC(C)=O)CO[C@@H]1C[C@@H]2O [Paclitaxel] (first compound max 1 µM, 7x7, partner max 3 µM) | 0.651 | 0.678 | 0.901 | 0.95 | 1 | 0.714 | 1 | 0.984 | 1 | 0.993 | 0.882 | 1 | 0.733 | 0.97 | 0.999 | 1 | 1 | 0.99 | 0.978 | 0.998
3 | CN(CCO)CC[C@H](CSc1ccccc1)Nc1ccc(S(=O)(=O)NC(=O)c2ccc(N3CCC([C@@H](O)c4ccccc4-c4ccc(Cl)cc4)CC3)cc2)cc1S(=O)(=O)C(F)(F)F [AZD4320] + CCN(CCO)CCCOc1ccc2c(Nc3cc(CC(=O)Nc4cccc(F)c4)[nH]n3)ncnc2c1 [AZD2811] (first compound max 1 µM, 7x7, partner max 1 µM) | 0.275 | 0.0773 | 0.324 | 0.142 | 1 | 0.196 | 1 | 0.704 | 0.227 | 0.509 | 0.105 | 0.768 | 0.144 | 0.417 | 0.835 | 0.624 | 0.907 | 0.497 | 0.613 | 0.915
4 | CN(CCO)CC[C@H](CSc1ccccc1)Nc1ccc(S(=O)(=O)NC(=O)c2ccc(N3CCC([C@@H](O)c4ccccc4-c4ccc(Cl)cc4)CC3)cc2)cc1S(=O)(=O)C(F)(F)F [AZD4320] + C[C@@H]1COCCN1C2=NC(=NC(=C2)C3(CC3)[S@](=N)(=O)C)C4=C5C=CNC5=NC=C4 [AZD6738] (first compound max 1 µM, 7x7, partner max 10 µM) | 0.771 | 0.843 | 0.803 | 0.624 | 1 | 0.433 | 1 | 0.766 | 0.541 | 0.794 | 0.156 | 0.937 | 0.656 | 0.715 | 1 | 0.564 | 0.773 | 0.874 | 0.663 | 0.983
5 | CN(CCO)CC[C@H](CSc1ccccc1)Nc1ccc(S(=O)(=O)NC(=O)c2ccc(N3CCC([C@@H](O)c4ccccc4-c4ccc(Cl)cc4)CC3)cc2)cc1S(=O)(=O)C(F)(F)F [AZD4320] + C[C@@H](Nc1cc(F)cc(F)c1)c1cc(C(=O)N(C)C)cc2c(=O)cc(N3CCOCC3)oc12 [AZD8186] (first compound max 1 µM, 7x7, partner max 3 µM) | 0.256 | 0.229 | 0.48 | 0.293 | 0.982 | 0.381 | 0.999 | 0.874 | 0.419 | 0.727 | 0.213 | 0.989 | 0.771 | 0.373 | 0.935 | 0.338 | 0.509 | 0.493 | 0.634 | 0.977
6 | CN(CCO)CC[C@H](CSc1ccccc1)Nc1ccc(S(=O)(=O)NC(=O)c2ccc(N3CCC([C@@H](O)c4ccccc4-c4ccc(Cl)cc4)CC3)cc2)cc1S(=O)(=O)C(F)(F)F [AZD4320] + Cc1cc2ncnn2cc1Nc1ncc2c(n1)n(C1CCOCC1)c(=O)n2C [AZD7648] (first compound max 1 µM, 7x7, partner max 10 µM) | 0.142 | 0.222 | 0.285 | 0.113 | 0.98 | 0.224 | 0.966 | 0.785 | 0.178 | 0.191 | 0.0447 | 0.578 | 0.222 | 0.619 | 0.882 | 0.26 | 0.208 | 0.437 | 0.15 | 0.867
7 | CN(CCO)CC[C@H](CSc1ccccc1)Nc1ccc(S(=O)(=O)NC(=O)c2ccc(N3CCC([C@@H](O)c4ccccc4-c4ccc(Cl)cc4)CC3)cc2)cc1S(=O)(=O)C(F)(F)F [AZD4320] + Cn1cnc2c(F)c(Nc3ccc(Br)cc3Cl)c(C(=O)NOCCO)cc21 [Selumetinib] (first compound max 1 µM, 7x7, partner max 3 µM) | 0.834 | 0.214 | 0.331 | 0.21 | 0.993 | 0.322 | 1 | 0.935 | 0.445 | 0.593 | 0.301 | 0.996 | 0.253 | 0.456 | 0.916 | 0.333 | 0.588 | 0.34 | 0.454 | 0.989
8 | CN(CCO)CC[C@H](CSc1ccccc1)Nc1ccc(S(=O)(=O)NC(=O)c2ccc(N3CCC([C@@H](O)c4ccccc4-c4ccc(Cl)cc4)CC3)cc2)cc1S(=O)(=O)C(F)(F)F [AZD4320] + Nc1ccn([C@@H]2O[C@H](CO)[C@@H](O)C2(F)F)c(=O)n1 [Gemcitabine] (first compound max 1 µM, 7x7, partner max 0.3 µM) | 0.851 | 0.586 | 0.731 | 0.929 | 1 | 0.473 | 1 | 0.937 | 0.218 | 0.821 | 0.224 | 0.997 | 0.902 | 0.914 | 1 | 0.878 | 0.91 | – | 0.783 | 0.966
9 | Cc1c2c(nn1C)CSCc1cc(n(C)n1)CSc1cc(c3ccccc3c1)OCCCc1c(C(=O)O)n(C)c3c-2c(Cl)ccc13 [AZD5991] + Cn1cnc2c(F)c(Nc3ccc(Br)cc3Cl)c(C(=O)NOCCO)cc21 [Selumetinib] (first compound max 1 µM, 7x7, partner max 3 µM) | 0.832 | 0.19 | 0.289 | 0.288 | 0.339 | 0.36 | 1 | 0.511 | 0.619 | 0.302 | 0.409 | 0.296 | 0.197 | 1 | 0.624 | 0.26 | 0.633 | 0.299 | – | 0.666
10 | Cc1cc2ncnn2cc1Nc1ncc2c(n1)n(C1CCOCC1)c(=O)n2C [AZD7648] + C=CCn1c(=O)c2cnc(Nc3ccc(N4CCN(C)CC4)cc3)nc2n1-c1cccc(C(C)(C)O)n1 [AZD1775] (first compound max 10 µM, partner max 1 µM) | 0.46 | 0.537 | 0.347 | 0.384 | 1 | 0.511 | 1 | 0.635 | 0.383 | 0.779 | 0.373 | 0.52 | 0.307 | 0.861 | 0.914 | 0.529 | 0.704 | 0.833 | 0.38 | 0.568
11 | Cc1cc2ncnn2cc1Nc1ncc2c(n1)n(C1CCOCC1)c(=O)n2C [AZD7648] + CCN(CCO)CCCOc1ccc2c(Nc3cc(CC(=O)Nc4cccc(F)c4)[nH]n3)ncnc2c1 [AZD2811] (first compound max 10 µM, 7x7, partner max 1 µM) | 0.203 | 0.245 | 0.362 | 0.271 | 0.965 | 0.297 | 0.832 | 0.573 | 0.254 | 0.686 | 0.213 | 0.37 | 0.267 | 0.699 | 0.342 | 0.389 | 0.349 | 0.722 | 0.282 | 0.158
12 | N#Cc1cnc(Nc2cc(NC[C@H]3CNCCO3)c(C(F)(F)F)cn2)cn1 [SRA737] + O=c1[nH]cc(F)c(=O)[nH]1 [5-Fluorouracil] (first compound max 10 µM, 7x7, partner max 20 µM) | 0.7 | 0.721 | 0.534 | – | 1 | 0.313 | 0.963 | 0.76 | 0.364 | 0.558 | 0.0376 | 0.544 | 0.543 | 0.905 | 1 | 0.564 | 0.862 | 0.572 | 0.361 | 0.483
